According to article PMC7221519, “Synthesis and Evaluation of [^18F]FEtLos and [^18F]AMBF3Los as Novel ^18F-Labelled Losartan Derivatives for Molecular Imaging of Angiotensin II Type 1 Receptors” (Molecules, 2020):
Several values for one entry are separate records, joined by “and”; a condition that tells them apart may be missing. Equal values may be shown once. Read-outs that look alike come from different tables or passages of the source. One block for each compound: values may come before it.

Key:
human AT1R = molecular target: T1, human AT1R (Homo sapiens, UniProt P30556); experiment: Competition binding assay in membranes containing human AT1R, [125I]-(Sar1,Ile8)-Angiotensin II as radioligand; details: human AT1R membranes from CHO-K1 cells, displacement of [125I]-(Sar1,Ile8)-Angiotensin II, n = 3
T1 construct: purchased Perkin Elmer (Waltham, MA, USA); host or cells: CHO-K1 cells (recombinant membrane preparation)
T1 sequence (P30556 1-359): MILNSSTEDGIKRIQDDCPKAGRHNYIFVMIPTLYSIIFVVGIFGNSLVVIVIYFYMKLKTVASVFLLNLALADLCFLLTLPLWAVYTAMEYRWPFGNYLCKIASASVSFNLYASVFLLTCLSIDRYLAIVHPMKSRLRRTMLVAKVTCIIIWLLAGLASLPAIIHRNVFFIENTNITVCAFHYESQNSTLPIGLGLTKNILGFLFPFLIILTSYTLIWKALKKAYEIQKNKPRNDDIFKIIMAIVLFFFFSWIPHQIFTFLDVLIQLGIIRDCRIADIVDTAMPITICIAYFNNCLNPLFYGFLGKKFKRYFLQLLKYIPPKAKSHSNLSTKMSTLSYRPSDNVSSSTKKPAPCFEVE
Description: The assays were performed using membranes expressing the human angiotensin II type 1 receptor from CHO-K1 cells, purchased from Perkin Elmer (Waltham, MA, USA). […] The hot ligand [^125I]-(Sar1,Ile8)-Angiotensin II (81.4 TBq/mmol) was also purchased from Perkin Elmer (USA). The Multiscreen MSFCN6B50 96-well plates were used for this assay. The procedure was based on the recommended assay conditions from Perkin Elmer (Waltham, MA, USA) and procedures previously described for other AT1R ligands [22, 23]. Briefly, the 96-well plate was preincubated for 1–2 h at 4 °C with 200 μL of 0.5% BSA (Bovine Serum Albumin) followed by washing (3 times) with an assay buffer. Next, 150 µL of the membranes, diluted (1:150) in the buffer assay (50 mM Tris-HCl pH 7.4, 5 mM MgCl2) to a final concentration of 0.6 μg/well, were added to the wells followed by the addition of cold (25 µL) and hot ligand (25 µL). The plate was incubated for 60 min at 27 °C under stirring and at the end of the experiment all wells were washed (9 times) with ice-cold wash buffer (50 mM Tris-HCl pH 7.4) using vacuum. Afterwards, membranes were punched out and counted in a Perkin Elmer (Waltham, MA, USA) Wizard2 2480 automatic gamma counter. The Ki values were calculated by a non-linear curve fitting using GraphPad Prism 7.01 Software (San Diego, CA, USA). The experiment was done in triplicate.

[1] = set-up: method as in earlier work; details: cited from earlier work
[2] = Log D7.4 measurement (octanol/PBS, gamma counting); assay type: physicochemical; details: pH 7.4, n = 3
Description: The log D7.4 values were determined according to the literature. Aliquots (2 μL) of [^18F]FEtLos and [^18F]AMBF3Los were added to polypropylene tubes containing 3 mL of octanol and 3 mL of PBS (phosphate-buffered saline). The samples were vortexed for 20 s (2 times) and centrifuged at 600× g for 15 min. Aliquots (0.1 mL) of each layer were counted in a gamma counter to determine the log D7.4 as log (counts in octanol layer/counts in PBS layer).

CHO-AT1R cells = experiment: Cell binding (uptake) assay in CHO-AT1R and CHO cells; assay type: cell-based, Chinese hamster; details: 60 min at 4 °C; for AT1R-specific binding to CHO-AT1R cells (blocking with losartan potassium): losartan potassium 100 µM/well
Description: The cell binding assays were performed based on previous reports with modifications. […] To saturate the AT1R, the cells of the blocking group were treated with losartan 30 min before adding the radiolabelled compound. At the end of the incubation period, the supernatant was aspirated and cells were washed six times with ice-cold PBS, and further removed with cell scraper and transferred to a gamma counter tube. The cellular activity was counted in a Cobra II gamma counter (Packard). […]
(§1) Supplemental material and methods
1. Binding assays in cells with [18F]FEtLos
CHO-AT1R and CHO cells ([…]) were plated in a 6-well plate overnight and then incubated for one hour at 4 °C with 10 µCi (370 kBq) of [18F]FEtLos per well, in presence or absence […]
(§2) At the end of the incubation period, the supernatant was aspirated and cells were washed six times with ice-cold PBS, and further removed with cell scraper and transferred to a gamma counter tube. The activity in the cells was counted in a Cobra II gamma counter (Packard). […]

[3] = Biodistribution at 60 min p.i. in healthy NSG mice; assay type: in vivo, NOD.Cg-Prkdc^scidIl2rg^tm1Wjl/SzJ mice; details: n = 3
Description: Experiments involving animals were approved by the Animal Ethics Committee of the University of British Columbia (Protocol number: A16-0128). Immunodeficient NOD.Cg-Prkdc^scidII2rg^tm1Wjl/SzJ (NSG) mice were obtained from an in-house breeding colony at the Animal Resource Centre at BC Cancer Research Facility. Mice were always divided into baseline and AT1R blocked groups to assess the AT1R binding specificity of [^18F]AMBF3Los with the co-injection of the AT1R blocker losartan (18 mg/kg, dissolved in PBS).
(§3) The in vivo AT1R binding specificity of [^18F]AMBF3Los was evaluated in healthy mice by a dynamic PET scan. Healthy NSG mice were injected in the tail vein with 6 ± 1 MBq (170 ± 38 μCi) of [^18F]AMBF3Los and a sixty-minute dynamic PET scans was carried out on a μPET/CT scanner (Inveon, Siemens) following procedures reported previously. Alternatively, [^18F]AMBF3Los was concomitantly injected with the AT1R blocker losartan (18 mg/kg) before the dynamic acquisition. Before and during the acquisition, mice were sedated with a continuous flow of isoflurane anesthesia (2% isoflurane in oxygen). The µPET/CT images were analyzed with PMOD v3.3 software (PMOD Technologies, Zürich, Switzerland). An elliptical volume-of-interest that enclosed the entire kidney was positioned manually on the PET images for the determination of the kidney volume. Then, 3-dimensional isocontours were drawn automatically. For each VOI, the percentage of the injected dose in the region of interest, divided by the injected dose per animal weight (% ID/g) could be calculated directly using the output parameters from the μPET.
After the sixty-minute dynamic PET scans, anesthetized mice were euthanized by carbon dioxide asphyxiation and blood, fat, testis, intestines, stomach, spleen, liver, pancreas, adrenal glands, kidneys, lungs, heart, muscle, bone and brain were harvested, rinsed in PBS, weighted and counted in a Perkin Elmer (Waltham, MA, USA) Wizard2 2480 automatic gamma counter to quantify the percent of injected dose per gram of tissue (% ID/g).

renal AT1R [4] = experiment: Dynamic µPET scan of healthy NSG mice; assay type: in vivo, NOD.Cg-Prkdc^scidIl2rg^tm1Wjl/SzJ mice; details: early time points (10, 15 and 20 min), losartan 18 mg/kg
Description: as §3

renal AT1R [5] = experiment: Autoradiography of mouse kidneys after 60-min dynamic µPET scan; assay type: in vivo, NOD.Cg-Prkdc^scidIl2rg^tm1Wjl/SzJ mice; details: autoradiography after 60-min dynamic µPET scan, co-injection of losartan potassium
Text: Kidneys harvested from healthy NSG mice (after the biodistribution studies), were rinsed in PBS and frozen in isopentane/dry-ice bath. Ten μm-thick slides of the kidneys were obtained using a cryostat (Leica, Wetzlar, Germany), and thaw-mounted onto Superfrost Plus microscope slides (Fischerbrand from Thermo Fisher Scientific, Toronto, ON, Canada), following general procedures of the lab. Afterwards, kidney slides were exposed to a phosphor screen overnight and imaged on a Typhoon FLA 9500 scanner (GE Healthcare, Chicago, IL, USA).

renal AT1R [6] = experiment: Ex vivo µPET/CT imaging of mouse kidneys 10 min p.i.; assay type: in vivo, Balb/c Nude mice; details: losartan 70 mg/kg
Description: The renal AT1R binding specificity of [^18F]FEtLos was also evaluated by an ex vivo µPET/CT imaging of Balb/c Nude mice kidneys 10 min post injection (p.i.) of the tracer. […] These positive results of the ex vivo renal AT1R binding of [^18F]FEtLos might be possible due to the high AT1R density in the kidneys, that allows visualizing specific uptake in spite of the low AT1R binding affinity of [^18F]FEtLos.
Figure S12. Calibration curve for determining the molar activity of [18F]FEtLos. The curve represent the correlation between the area under the curve (AUC), recorded from the analytical HPLC profile at 254 nm, and the amount (nmol) of the product injected onto analytical HPLC.
as §1
1. Binding assays in cells with [18F]FEtLos […]
as §2
The AT1R binding specificity of [18F]FEtLos was evaluated by ex vivo µPET/CT imaging of healthy Balb/c Nude mice kidneys after ten minutes of intravenous injection of [18F]FEtLos with […]
(AT1R blocked). […] The ex vivo µPET/CT imaging was recorded using a FOV (field of view) of 60 mm and 15 min for PET scan, and 35 kV and 400 µA for CT scan.

rat kidney AT1R = molecular target: rat kidney AT1R; set-up: method as in PMID 27199365; details: read-out: dissociation constant, KD; cited from earlier work
[7] = set-up: method as in PMID 27199365; details: in vivo, 60 min; cited from earlier work
[8] = AT1R Blocking (co-injection of losartan 18 mg/kg)

Structure (SMILES): CCCCc1nc(Cl)c(Cn2cc(C[N+](C)(C)C[B-](F)(F)F)nn2)n1Cc1ccc(-c2ccccc2-c2nnn[nH]2)cc1 [AMBF3Los, 2-butyl-4-chloro-5-[((1H-1,2,3-triazol-4-yl)-(N,N-dimethyl-ammoniomethyl-trifluoroborate)methyl)methyl]-1-[(2′-(1H-tetrazol-5-yl)biphenyl-4-yl)methyl]-1H-imidazole]
- Ki (human AT1R): 7.9 nM

Structure (SMILES): CCCCc1nc(Cl)c(CO)n1Cc1ccc(-c2ccccc2-c2nn[nH]n2)cc1 [Losartan potassium, 2-butyl-4-chloro-5-hydroxymethyl-1-[(2′-(1H-tetrazol-5-yl)biphenyl-4-yl)methyl]-1H-imidazole]
- log D7.4 [1]: 1.7

Structure (SMILES): CCCCc1nc(Cl)c(Cn2cc(CCCOc3cccnc3[18F])nn2)n1Cc1ccc(-c2ccccc2-c2nnn[nH]2)cc1 [[^18F]FPyKYNE-losartan]
- Kd (rat kidney AT1R): 49.4 nM
- liver uptake [7]: 66.7 % ID/g

Further lines, with some results ahead:

- Ki (human AT1R): 2200 ± 200 nM
Structure (SMILES): CCCCc1nc(Cl)c(COCCF)n1Cc1ccc(-c2ccccc2-c2nnn[nH]2)cc1 [FEtLos, 2-butyl-4-chloro-5-(2-fluoroethoxy)methyl-1-[(2′-(1H-tetrazol-5-yl)biphenyl-4-yl)methyl]-1H-imidazole]

- log D7.4 [2]: −0.43 ± 0.02 and −0.4
- Uptake, Adrenal glands [3, 8]: 0.11 ± 0.06 % ID/g
- Uptake, Blood [3, 8]: 0.08 ± 0.08 % ID/g
- Uptake, Bone [3, 8]: 0.11 ± 0.03 % ID/g
- Uptake, Brain [3, 8]: 0.005 ± 0.004 % ID/g
- Uptake, Fat [3, 8]: 0.008 ± 0.002 % ID/g
- Uptake, Heart [3, 8]: 0.04 ± 0.03 % ID/g
- Uptake, Intestines [3, 8]: 62 ± 3 % ID/g
- Uptake, Kidneys [3, 8]: 1.9 ± 1.3 % ID/g
- Uptake, Liver [3, 8]: 0.6 ± 0.3 % ID/g
- Uptake, Lungs [3, 8]: 0.08 ± 0.04 % ID/g
- Uptake, Muscle [3, 8]: 0.05 ± 0.04 % ID/g
- Uptake, Pancreas [3, 8]: 0.07 ± 0.06 % ID/g
- Uptake, Spleen [3, 8]: 0.08 ± 0.03 % ID/g
- Uptake, Stomach [3, 8]: 2 ± 2 % ID/g
- Uptake, Testis [3, 8]: 0.029 ± 0.008 % ID/g
- Uptake, Adrenal glands ([3]; Baseline): 0.1 ± 0.1 % ID/g
- Uptake, Blood ([3]; Baseline): 0.05 ± 0.03 % ID/g
- Uptake, Bone ([3]; Baseline): 0.11 ± 0.06 % ID/g
- Uptake, Brain ([3]; Baseline): 0.006 ± 0.005 % ID/g
- Uptake, Fat ([3]; Baseline): 0.011 ± 0.004 % ID/g
- Uptake, Heart ([3]; Baseline): 0.03 ± 0.01 % ID/g
- Uptake, Intestines ([3]; Baseline): 63 ± 9 % ID/g
- Uptake, Kidneys ([3]; Baseline): 3.5 ± 1.2 % ID/g
- Uptake, Liver ([3]; Baseline): 0.5 ± 0.5 % ID/g
- Uptake, Lungs ([3]; Baseline): 0.06 ± 0.03 % ID/g
- Uptake, Muscle ([3]; Baseline): 0.02 ± 0.01 % ID/g
- Uptake, Pancreas ([3]; Baseline): 0.05 ± 0.03 % ID/g
- Uptake, Spleen ([3]; Baseline): 0.2 ± 0.1 % ID/g
- Uptake, Stomach ([3]; Baseline): 0.06 ± 0.05 % ID/g
- Uptake, Testis ([3]; Baseline): 0.03 ± 0.01 % ID/g
Structure (SMILES): CCCCc1nc(Cl)c(Cn2cc(C[N+](C)(C)C[B-](F)(F)[18F])nn2)n1Cc1ccc(-c2ccccc2-c2nnn[nH]2)cc1 [[^18F]AMBF3Los, [^18F]ammoniomethyltrifluoroborate-losartan]
- in vitro cellular uptake in CHO-AT1R cells compared to CHO cells (CHO-AT1R cells; 10 µCi per well): higher uptake
- AT1R-specific binding to CHO-AT1R cells (blocking with losartan potassium) (CHO-AT1R cells): receptor-specific
- renal cortex uptake in dynamic µPET with co-injected losartan potassium versus baseline (renal AT1R [4]): reduced
- renal cortex activity, times smaller in mouse blocked with losartan potassium versus unblocked (renal AT1R [5]): approximately 5 times

- logD ([2]; pH 7.4, octanol/PBS): 0.21 ± 0.09
Structure (SMILES): CCCCc1nc(Cl)c(COCC[18F])n1Cc1ccc(-c2ccccc2-c2nnn[nH]2)cc1 [[^18F]FEtLos, [^18F]fluoroethyl-losartan]
- AT1R-specific binding to CHO-AT1R cells (blocking with losartan potassium) (CHO-AT1R cells): did not show any specific AT1R binding
- AT1R-specific binding to CHO-AT1R cells (blocking with losartan potassium) (CHO-AT1R cells; listed as [18F]FEtLos): non-significant blocking effect
- kidney uptake in ex vivo µPET/CT, baseline versus co-injected losartan potassium (renal AT1R [6]): high uptake in the kidneys (baseline), which was blocked
